# Measured values: the supplement of paper PMC10307832
# Key:
# Experiment in all cases: relative viability (nuclei count vs DMSO), 5 days (fraction); higher = more cells survive
# Fedratinib + Luminespib = compound: Cc1cnc(Nc2ccc(OCCN3CCCC3)cc2)nc1Nc1cccc(S(=O)(=O)NC(C)(C)C)c1 [Fedratinib] + CCNC(=O)c1noc(-c2cc(C(C)C)c(O)cc2O)c1-c1ccc(CN2CCOCC2)cc1 [Luminespib] (partner 0.01 µM)
# How it was run: (§1)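 Values are medians from duplicate plates. Each reflects relative viability, defined as the nuclei count of treated wells over that of vehicle wells. Lung cancer cell lines in 1536-well plates were pin-tool dosed one day after seeding with one drug alone or with a fixed anchor-drug dose plus five library-drug doses (not always all listed) in √10 steps, then fixed, stained and imaged at 4× after 5 days.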
# Fedratinib + Dasatinib = compound: Cc1cnc(Nc2ccc(OCCN3CCCC3)cc2)nc1Nc1cccc(S(=O)(=O)NC(C)(C)C)c1 [Fedratinib] + Cc1nc(Nc2ncc(C(=O)Nc3c(C)cccc3Cl)s2)cc(N2CCN(CCO)CC2)n1 [Dasatinib] (partner 0.075 µM)
# How it was run: as §1
# GW-2580 + Vorinostat = compound: COC1=CC=C(C=C1)COC2=C(C=C(C=C2)CC3=CN=C(N=C3N)N)OC [GW-2580] + O=C(CCCCCCC(=O)Nc1ccccc1)NO [Vorinostat] (partner 1 µM)
# How it was run: as §1
# GW-2580 + Navitoclax = compound: COC1=CC=C(C=C1)COC2=C(C=C(C=C2)CC3=CN=C(N=C3N)N)OC [GW-2580] + CC1(C)CCC(c2ccc(Cl)cc2)=C(CN2CCN(c3ccc(C(=O)NS(=O)(=O)c4ccc(N[C@H](CCN5CCOCC5)CSc5ccccc5)c(S(=O)(=O)C(F)(F)F)c4)cc3)CC2)C1 [Navitoclax] (partner 0.5 µM)
# How it was run: as §1
# GW-2580 + Lapatinib = compound: COC1=CC=C(C=C1)COC2=C(C=C(C=C2)CC3=CN=C(N=C3N)N)OC [GW-2580] + CS(=O)(=O)CCNCc1ccc(-c2ccc3ncnc(Nc4ccc(OCc5cccc(F)c5)c(Cl)c4)c3c2)o1 [Lapatinib] (partner 2 µM)
# How it was run: as §1
cell line,measurement,setting,value
NCI-H1993,relative viability,Fedratinib + Luminespib; first compound 0.1 µM,0.679
same,relative viability,Fedratinib + Luminespib; first compound 0.3162 µM,0.85
same,relative viability,Fedratinib + Luminespib; first compound 1 µM,1.1
same,relative viability,Fedratinib + Dasatinib; first compound 0.1 µM,0.591
same,relative viability,Fedratinib + Dasatinib; first compound 0.3162 µM,0.545
same,relative viability,Fedratinib + Dasatinib; first compound 1 µM,0.62
same,relative viability,GW-2580 + Vorinostat; first compound 0.08 µM,0.993
same,relative viability,GW-2580 + Vorinostat; first compound 0.8 µM,0.887
same,relative viability,GW-2580 + Vorinostat; first compound 2.53 µM,0.661
same,relative viability,GW-2580 + Vorinostat; first compound 8 µM,0.868
same,relative viability,GW-2580 + Navitoclax; first compound 0.08 µM,0.932
same,relative viability,GW-2580 + Navitoclax; first compound 0.8 µM,1.14
same,relative viability,GW-2580 + Navitoclax; first compound 8 µM,0.948
same,relative viability,GW-2580 + Lapatinib; first compound 0.08 µM,0.775
same,relative viability,GW-2580 + Lapatinib; first compound 0.8 µM,0.904
same,relative viability,GW-2580 + Lapatinib; first compound 8 µM,0.907
NCI-H520,relative viability,Fedratinib + Luminespib; first compound 0.1 µM,0.265
same,relative viability,Fedratinib + Luminespib; first compound 0.3162 µM,0.194
same,relative viability,Fedratinib + Luminespib; first compound 1 µM,0.23
same,relative viability,Fedratinib + Dasatinib; first compound 0.1 µM,0.18
same,relative viability,Fedratinib + Dasatinib; first compound 0.3162 µM,0.205
same,relative viability,Fedratinib + Dasatinib; first compound 1 µM,0.196
same,relative viability,GW-2580 + Vorinostat; first compound 0.08 µM,0.935
same,relative viability,GW-2580 + Vorinostat; first compound 0.8 µM,0.651
same,relative viability,GW-2580 + Vorinostat; first compound 2.53 µM,0.768
same,relative viability,GW-2580 + Vorinostat; first compound 8 µM,0.682
same,relative viability,GW-2580 + Navitoclax; first compound 0.08 µM,1.18
same,relative viability,GW-2580 + Navitoclax; first compound 0.8 µM,1.3
same,relative viability,GW-2580 + Navitoclax; first compound 2.53 µM,1.45
same,relative viability,GW-2580 + Navitoclax; first compound 8 µM,1.25
same,relative viability,GW-2580 + Lapatinib; first compound 0.08 µM,0.973
same,relative viability,GW-2580 + Lapatinib; first compound 0.8 µM,0.926
same,relative viability,GW-2580 + Lapatinib; first compound 2.53 µM,0.849
same,relative viability,GW-2580 + Lapatinib; first compound 8 µM,0.931
NCI-H647,relative viability,Fedratinib + Luminespib; first compound 0.1 µM,0.15
same,relative viability,Fedratinib + Luminespib; first compound 0.3162 µM,0.209
same,relative viability,Fedratinib + Luminespib; first compound 1 µM,0.177
same,relative viability,Fedratinib + Dasatinib; first compound 0.1 µM,0.21
same,relative viability,Fedratinib + Dasatinib; first compound 0.3162 µM,0.203
same,relative viability,Fedratinib + Dasatinib; first compound 1 µM,0.142
same,relative viability,GW-2580 + Vorinostat; first compound 0.08 µM,0.726
same,relative viability,GW-2580 + Vorinostat; first compound 0.8 µM,0.511
same,relative viability,GW-2580 + Vorinostat; first compound 2.53 µM,0.59
same,relative viability,GW-2580 + Vorinostat; first compound 8 µM,0.447
same,relative viability,GW-2580 + Navitoclax; first compound 0.08 µM,1.09
same,relative viability,GW-2580 + Navitoclax; first compound 0.8 µM,1.19
same,relative viability,GW-2580 + Navitoclax; first compound 2.53 µM,1.18
same,relative viability,GW-2580 + Navitoclax; first compound 8 µM,1.3
same,relative viability,GW-2580 + Lapatinib; first compound 0.08 µM,1.22
same,relative viability,GW-2580 + Lapatinib; first compound 0.8 µM,1.29
same,relative viability,GW-2580 + Lapatinib; first compound 2.53 µM,0.926
same,relative viability,GW-2580 + Lapatinib; first compound 8 µM,1.15
SK-LU-1,relative viability,Fedratinib + Luminespib; first compound 0.1 µM,0.181
same,relative viability,Fedratinib + Luminespib; first compound 0.3162 µM,0.19
same,relative viability,Fedratinib + Luminespib; first compound 1 µM,0.16
same,relative viability,Fedratinib + Dasatinib; first compound 0.1 µM,0.143
same,relative viability,Fedratinib + Dasatinib; first compound 0.3162 µM,0.169
same,relative viability,Fedratinib + Dasatinib; first compound 1 µM,0.165
same,relative viability,GW-2580 + Vorinostat; first compound 0.08 µM,0.924
same,relative viability,GW-2580 + Vorinostat; first compound 0.8 µM,0.918
same,relative viability,GW-2580 + Vorinostat; first compound 2.53 µM,0.648
same,relative viability,GW-2580 + Vorinostat; first compound 8 µM,0.734
same,relative viability,GW-2580 + Navitoclax; first compound 0.08 µM,0.869
same,relative viability,GW-2580 + Navitoclax; first compound 0.8 µM,0.85
same,relative viability,GW-2580 + Navitoclax; first compound 2.53 µM,1.06
same,relative viability,GW-2580 + Navitoclax; first compound 8 µM,1.05
same,relative viability,GW-2580 + Lapatinib; first compound 0.08 µM,0.962
same,relative viability,GW-2580 + Lapatinib; first compound 0.8 µM,1.14
same,relative viability,GW-2580 + Lapatinib; first compound 2.53 µM,0.829
same,relative viability,GW-2580 + Lapatinib; first compound 8 µM,0.979
NCI-H1650,relative viability,Fedratinib + Luminespib; first compound 0.3162 µM,0.186
same,relative viability,Fedratinib + Luminespib; first compound 1 µM,0.2
same,relative viability,Fedratinib + Dasatinib; first compound 0.3162 µM,0.295
same,relative viability,Fedratinib + Dasatinib; first compound 1 µM,0.231
same,relative viability,GW-2580 + Vorinostat; first compound 0.08 µM,0.541
same,relative viability,GW-2580 + Vorinostat; first compound 0.8 µM,0.901
same,relative viability,GW-2580 + Vorinostat; first compound 2.53 µM,0.457
same,relative viability,GW-2580 + Vorinostat; first compound 8 µM,0.586
same,relative viability,GW-2580 + Navitoclax; first compound 0.08 µM,1.31
same,relative viability,GW-2580 + Navitoclax; first compound 0.8 µM,1.26
same,relative viability,GW-2580 + Navitoclax; first compound 2.53 µM,1.1
same,relative viability,GW-2580 + Navitoclax; first compound 8 µM,1.13
same,relative viability,GW-2580 + Lapatinib; first compound 0.08 µM,0.822
same,relative viability,GW-2580 + Lapatinib; first compound 0.8 µM,0.895
same,relative viability,GW-2580 + Lapatinib; first compound 2.53 µM,0.677
same,relative viability,GW-2580 + Lapatinib; first compound 8 µM,0.781
NCI-H2009,relative viability,Fedratinib + Luminespib; first compound 0.1 µM,1.04
same,relative viability,Fedratinib + Luminespib; first compound 0.3162 µM,1.09
same,relative viability,Fedratinib + Luminespib; first compound 1 µM,0.943
same,relative viability,Fedratinib + Dasatinib; first compound 0.1 µM,0.232
same,relative viability,Fedratinib + Dasatinib; first compound 0.3162 µM,0.241
same,relative viability,Fedratinib + Dasatinib; first compound 1 µM,0.185
same,relative viability,GW-2580 + Vorinostat; first compound 0.08 µM,0.774
same,relative viability,GW-2580 + Vorinostat; first compound 0.8 µM,0.834
same,relative viability,GW-2580 + Vorinostat; first compound 2.53 µM,0.702
same,relative viability,GW-2580 + Vorinostat; first compound 8 µM,0.679
same,relative viability,GW-2580 + Navitoclax; first compound 0.08 µM,1.25
same,relative viability,GW-2580 + Navitoclax; first compound 0.8 µM,1.22
same,relative viability,GW-2580 + Navitoclax; first compound 2.53 µM,1.15
same,relative viability,GW-2580 + Navitoclax; first compound 8 µM,1.02
same,relative viability,GW-2580 + Lapatinib; first compound 0.08 µM,0.966
same,relative viability,GW-2580 + Lapatinib; first compound 0.8 µM,0.894
same,relative viability,GW-2580 + Lapatinib; first compound 2.53 µM,0.91
same,relative viability,GW-2580 + Lapatinib; first compound 8 µM,0.857
LOU-NH91,relative viability,Fedratinib + Luminespib; first compound 0.1 µM,0.323
same,relative viability,Fedratinib + Luminespib; first compound 0.3162 µM,0.4
same,relative viability,Fedratinib + Luminespib; first compound 1 µM,0.33
same,relative viability,Fedratinib + Dasatinib; first compound 0.1 µM,0.518
same,relative viability,Fedratinib + Dasatinib; first compound 0.3162 µM,0.518
same,relative viability,Fedratinib + Dasatinib; first compound 1 µM,0.557
same,relative viability,GW-2580 + Vorinostat; first compound 0.08 µM,0.925
same,relative viability,GW-2580 + Vorinostat; first compound 0.8 µM,1.03
same,relative viability,GW-2580 + Vorinostat; first compound 2.53 µM,0.801
same,relative viability,GW-2580 + Vorinostat; first compound 8 µM,0.943
same,relative viability,GW-2580 + Navitoclax; first compound 0.08 µM,0.683
same,relative viability,GW-2580 + Navitoclax; first compound 0.8 µM,0.731
same,relative viability,GW-2580 + Navitoclax; first compound 2.53 µM,0.618
same,relative viability,GW-2580 + Navitoclax; first compound 8 µM,0.752
same,relative viability,GW-2580 + Lapatinib; first compound 0.08 µM,0.748
same,relative viability,GW-2580 + Lapatinib; first compound 0.8 µM,0.811
same,relative viability,GW-2580 + Lapatinib; first compound 2.53 µM,0.649
same,relative viability,GW-2580 + Lapatinib; first compound 8 µM,0.789
NCI-H2405,relative viability,Fedratinib + Luminespib; first compound 0.1 µM,0.57
same,relative viability,Fedratinib + Luminespib; first compound 0.3162 µM,0.701
same,relative viability,Fedratinib + Luminespib; first compound 1 µM,0.562
same,relative viability,Fedratinib + Dasatinib; first compound 0.1 µM,0.191
same,relative viability,Fedratinib + Dasatinib; first compound 0.3162 µM,0.244
same,relative viability,Fedratinib + Dasatinib; first compound 1 µM,0.159
same,relative viability,GW-2580 + Vorinostat; first compound 0.08 µM,1.05
same,relative viability,GW-2580 + Vorinostat; first compound 0.8 µM,1.19
same,relative viability,GW-2580 + Vorinostat; first compound 2.53 µM,0.9
same,relative viability,GW-2580 + Vorinostat; first compound 8 µM,0.785
same,relative viability,GW-2580 + Navitoclax; first compound 0.08 µM,0.888
same,relative viability,GW-2580 + Navitoclax; first compound 0.8 µM,0.742
same,relative viability,GW-2580 + Navitoclax; first compound 2.53 µM,0.928
same,relative viability,GW-2580 + Navitoclax; first compound 8 µM,0.66
same,relative viability,GW-2580 + Lapatinib; first compound 0.08 µM,1.05
same,relative viability,GW-2580 + Lapatinib; first compound 0.8 µM,1.16
same,relative viability,GW-2580 + Lapatinib; first compound 2.53 µM,1.02
same,relative viability,GW-2580 + Lapatinib; first compound 8 µM,0.912
LCLC-97TM1,relative viability,Fedratinib + Luminespib; first compound 0.1 µM,0.85
same,relative viability,Fedratinib + Luminespib; first compound 0.3162 µM,0.758
same,relative viability,Fedratinib + Luminespib; first compound 1 µM,0.7
same,relative viability,Fedratinib + Dasatinib; first compound 0.1 µM,0.822
same,relative viability,Fedratinib + Dasatinib; first compound 0.3162 µM,0.831
same,relative viability,Fedratinib + Dasatinib; first compound 1 µM,0.723
same,relative viability,GW-2580 + Vorinostat; first compound 0.08 µM,0.806
same,relative viability,GW-2580 + Vorinostat; first compound 0.8 µM,0.74
same,relative viability,GW-2580 + Vorinostat; first compound 2.53 µM,0.659
same,relative viability,GW-2580 + Vorinostat; first compound 8 µM,0.684
same,relative viability,GW-2580 + Navitoclax; first compound 0.08 µM,0.443
same,relative viability,GW-2580 + Navitoclax; first compound 2.53 µM,0.369
same,relative viability,GW-2580 + Navitoclax; first compound 8 µM,0.321
same,relative viability,GW-2580 + Lapatinib; first compound 0.08 µM,1.02
same,relative viability,GW-2580 + Lapatinib; first compound 2.53 µM,0.973
same,relative viability,GW-2580 + Lapatinib; first compound 8 µM,0.898
